In ChEMBL document CHEMBL1132889, “Synthesis and evaluation of 9,9-dimethylxanthene tricyclics against trypanothione reductase, Trypanosoma brucei, Trypanosoma cruzi and Leishmania donovani” (2000):
Converted amounts (≈) assume the structure as drawn.

Legend:
Leishmania donovani [1] = assay: The compound was evaluated in vitro for its inhibitory affect against Leishmania donovani; type: functional; details: read-out: ED50 (the source's name)
[2] = Cytotoxicity against peritoneal macrophages of female CD1 mice culturing amastigote stages of Leishmania donovani; type: functional; details: Mus musculus
[3] = Cytotoxicity against peritoneal macrophages of female CD1 mice culturing amastigote stages of Trypanosoma cruzi; type: functional; details: Mus musculus
Trypanosoma cruzi [4] = assay: The compound was evaluated in vitro for its inhibitory affect against Trypanosoma cruzi; type: functional; details: read-out: ED50 (the source's name)
Trypanosoma brucei [5] = assay: The compound was evaluated in vitro for its inhibitory affect against Trypanosoma brucei; (0.14 mM Sb); type: functional; details: read-out: ED50 (the source's name)
[6] = target: Trypanothione reductase (Trypanosoma cruzi) (UniProt P28593); assay: The compound was evaluated in vitro for its inhibitory affect against trypanothione reductase; parameters: concentration or dose not given beside the values; details: concentration not given here
Leishmania donovani [7] = assay: The compound was evaluated in vitro for its inhibitory affect against Leishmania donovani; (0.55 mM Sb); type: functional; details: read-out: ED50 (the source's name)
Trypanosoma cruzi [8] = assay: The compound was evaluated in vitro for its inhibitory affect against Trypanosoma cruzi; (0.48 mM Sb); type: functional; details: read-out: ED50 (the source's name)
Trypanosoma brucei [9] = assay: The compound was evaluated in vitro for its inhibitory affect against Trypanosoma brucei; (0.02 mM Sb); type: functional; details: read-out: ED50 (the source's name)
Trypanosoma brucei [10] = assay: The compound was evaluated in vitro for its inhibitory affect against Trypanosoma brucei; (7.58 mM Sb); type: functional; details: read-out: ED50 (the source's name)
Trypanosoma brucei [11] = assay: The compound was evaluated in vitro for its inhibitory affect against Trypanosoma brucei; (0.03 mM Sb); type: functional; details: read-out: ED50 (the source's name)
Leishmania donovani [12] = assay: The compound was evaluated in vitro for its inhibitory affect against Leishmania donovani; (32.6 mM Sb); type: functional; details: read-out: ED50 (the source's name)
Trypanosoma brucei [13] = assay: The compound was evaluated in vitro for its inhibitory affect against Trypanosoma brucei; (8.24 mM Sb); type: functional; details: read-out: ED50 (the source's name)
Trypanosoma brucei [14] = assay: The compound was evaluated in vitro for its inhibitory affect against Trypanosoma brucei; (9.66 mM Sb); type: functional; details: read-out: ED50 (the source's name)
Trypanosoma brucei [15] = assay: The compound was evaluated in vitro for its inhibitory affect against Trypanosoma brucei; (0.098 mM Sb); type: functional; details: read-out: ED50 (the source's name)
Trypanosoma cruzi [16] = assay: In vitro inhibitory affect against Trypanosoma cruzi; (32.7 mM Sb); type: functional; details: read-out: ED50 (the source's name)

Trypanothione reductase (Trypanosoma cruzi), sequence (P28593 whole entry, looked up): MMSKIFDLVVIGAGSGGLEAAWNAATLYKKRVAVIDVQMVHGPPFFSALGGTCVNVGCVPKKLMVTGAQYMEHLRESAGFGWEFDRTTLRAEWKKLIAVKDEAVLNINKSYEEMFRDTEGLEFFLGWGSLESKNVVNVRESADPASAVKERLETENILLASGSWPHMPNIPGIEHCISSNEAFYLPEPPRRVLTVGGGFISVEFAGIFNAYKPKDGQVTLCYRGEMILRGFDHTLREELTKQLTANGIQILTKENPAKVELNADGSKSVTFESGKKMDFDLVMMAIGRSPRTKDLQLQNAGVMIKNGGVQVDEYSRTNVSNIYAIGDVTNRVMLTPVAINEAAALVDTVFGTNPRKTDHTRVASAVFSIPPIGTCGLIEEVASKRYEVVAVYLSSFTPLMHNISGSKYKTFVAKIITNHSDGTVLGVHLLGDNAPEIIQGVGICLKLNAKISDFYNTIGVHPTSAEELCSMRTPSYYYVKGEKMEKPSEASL

SMILES | EC50 (Leishmania donovani [1]) [µg/mL] | EC50 (Trypanosoma cruzi [4]) [µg/mL] | inhibition [6] [%] | MIC [2] [µg/mL] | MIC [3] [µg/mL] | further results
CN(C)CCCNCCCc1cccc2c1Oc1c(CCCNCCCN(C)C)cccc1C2(C)C | > 30 | > 30 | 63 | > 30 | > 30 | EC50 (Trypanosoma brucei [5]): 0.07 µg/mL (≈ 0.141 µM)
CN(C)CCCNC(=O)c1cc(C(C)(C)C)cc2c1Oc1c(C(=O)NCCCN(C)C)cc(C(C)(C)C)cc1C2(C)C | – | – | 28.4 | > 30 | > 30 | EC50 (Leishmania donovani [7]): 0.32 µg/mL (≈ 0.553 µM); EC50 (Trypanosoma cruzi [8]): 0.28 µg/mL (≈ 0.484 µM); EC50 (Trypanosoma brucei [9]): 0.01 µg/mL (≈ 0.0173 µM)
CN(C)CCCNCc1cccc2c1Oc1c(CNCCCN(C)C)cccc1C2(C)C | > 30 | > 30 | 13.8 | > 300 | > 300 | EC50 (Trypanosoma brucei [10]): 3.32 µg/mL (≈ 7.57 µM)
N=C(N)c1ccc(OCCCCCOc2ccc(C(=N)N)cc2)cc1 [PENTAMIDINE] | – | – | – | – | – | EC50 (Trypanosoma brucei [11]): 0.01 µg/mL (≈ 0.0294 µM)
CN(C)CCC/N=C(\S)NCCCc1cccc2c1Oc1c(CCCN/C(S)=N/CCCN(C)C)cccc1C2(C)C | > 30 | > 30 | 52 | > 30 | > 30 | EC50 (Trypanosoma brucei [15]): 0.06 µg/mL (≈ 0.0979 µM)
O=C(Cn1ccnc1[N+](=O)[O-])NCc1ccccc1 [BENZNIDAZOLE] | – | – | – | – | – | EC50 (Trypanosoma cruzi [16]): 8.5 µg/mL (≈ 32.7 µM)

Further lines, with some results ahead:

EC50 (Leishmania donovani [1]) [µg/mL] | EC50 (Trypanosoma cruzi [4]) [µg/mL] | inhibition [6] [%] | SMILES | MIC [2] [µg/mL] | MIC [3] [µg/mL] | further results
– | > 30 | 58 | CN(C)CCCNC(=O)CCc1cccc2c1Oc1c(CCC(=O)NCCCN(C)C)cccc1C2(C)C | > 300 | > 300 | EC50 (Leishmania donovani [12]): 17 µg/mL (≈ 32.6 µM); EC50 (Trypanosoma brucei [13]): 4.3 µg/mL (≈ 8.23 µM)
> 30 | > 30 | 40 | CN(C)CCCNC(=O)c1cccc2c1Oc1c(C(=O)NCCCN(C)C)cccc1C2(C)C | > 300 | > 300 | EC50 (Trypanosoma brucei [14]): 4.5 µg/mL (≈ 9.64 µM)
